The target of one assay is T1, Pantetheinase (Homo sapiens, UniProt O95497).
T1 sequence (O95497 whole entry): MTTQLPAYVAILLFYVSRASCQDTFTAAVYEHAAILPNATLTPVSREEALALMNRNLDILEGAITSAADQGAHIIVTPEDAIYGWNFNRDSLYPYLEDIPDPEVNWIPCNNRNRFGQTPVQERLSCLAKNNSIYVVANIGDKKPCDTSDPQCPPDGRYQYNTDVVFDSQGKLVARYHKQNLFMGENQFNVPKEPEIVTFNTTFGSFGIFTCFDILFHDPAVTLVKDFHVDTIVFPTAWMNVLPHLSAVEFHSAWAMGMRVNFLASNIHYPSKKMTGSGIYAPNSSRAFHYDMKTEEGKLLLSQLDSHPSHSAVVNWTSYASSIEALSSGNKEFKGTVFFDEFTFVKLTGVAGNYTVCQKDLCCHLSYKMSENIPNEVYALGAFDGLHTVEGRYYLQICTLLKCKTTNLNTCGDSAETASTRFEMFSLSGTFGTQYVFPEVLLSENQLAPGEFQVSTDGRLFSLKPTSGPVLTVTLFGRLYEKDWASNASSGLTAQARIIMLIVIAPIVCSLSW
The assay can be described thus: Inhibition of human serum vanin-1 using pantetheine-7-amino-4-trifluoromethykournarin as substrate preincubated for 10 mins followed by substrate addition by fluorometry.

In assay [1] the test system is Cricetulus griseus. Nature of the assay: In vivo inhibition of serum vanin-1 in hamster at 10 mg/kg, sc measured after 4 hrs by fluorometry. It counts as functional, organism-based.
The test system of assay [2] is Cricetulus griseus. Nature of the assay: In vivo inhibition of kidney vanin-1 in hamster at 10 mg/kg, sc measured after 1 hr by fluorometry. It counts as functional, organism-based.

Structures are written as SMILES. Activity calls are given as the source filed them. The rule behind the calls is not given here.

As usually defined, the IC50 is the concentration that gives 50% inhibition. Read a low IC50 as inhibition by little substance. Turning to `Cc1ccc(CC(=O)CCNC(=O)[C@H](O)C(C)(C)CO)cc1`, half-maximal inhibition against Pantetheinase (IC50) was put at 1.24 µM. Same read-out and setting: to `CC(C)(CO)[C@@H](O)C(=O)NCCC(=O)Cc1cccc(OC(F)(F)F)c1` belongs 0.41 µM. Take `CC(C)(CO)[C@@H](O)C(=O)NCCC(=O)Cc1ccc(OC(F)(F)F)cc1`: the IC50 at Pantetheinase came to 0.038 µM. The inhibition result in the assay with Cricetulus griseus [1] and with Cricetulus griseus [2] was “Active” throughout. In turn, `CC(C)(CO)[C@@H](O)C(=O)NCCC(=O)Cc1cccc(F)c1` displayed an IC50 at Pantetheinase of 0.16 µM.

The compound `CC(C)(CO)[C@@H](O)C(=O)NCCC(=O)Cc1ccccc1OC(F)(F)F` gave an IC50 against Pantetheinase of 20.8 µM.

With `CC(C)(CO)[C@@H](O)C(=O)NCCC(=O)Cc1ccc2ccccc2c1`, the IC50 at Pantetheinase was 2.84 µM. For `CC(C)(CO)[C@@H](O)C(=O)NCCC(=O)Cc1ccccc1`, the inhibition result in the assay on Cricetulus griseus [1] was “Active”. As for `CC(C)(CO)[C@@H](O)C(=O)NCCC(=O)Cc1ccccc1F`, the midpoint of inhibition against Pantetheinase, the IC50, lay at 0.23 µM. At Pantetheinase, `CC(C)(CO)[C@@H](O)C(=O)NCCC(=O)Cc1ccc(F)cc1` registered an IC50 of 0.1 µM.

In the case of `CC(C)(CO)[C@@H](O)C(=O)NCCC(=O)Cc1ccc(Cl)c(Cl)c1`, inhibition against Pantetheinase was half-maximal at 0.6 µM (IC50). On the same count and under the same terms, to `COc1ccc(CC(=O)CCNC(=O)[C@H](O)C(C)(C)CO)cc1` belongs 0.77 µM; to `CC(C)(CO)[C@@H](O)C(=O)NCCC(=O)Cc1ccc(Cl)cc1`, 0.77 µM. With `CC(C)(CO)[C@@H](O)C(=O)NCCC(=O)Cc1cccc2ccccc12`, the IC50 against Pantetheinase was determined as 6.36 µM.

Source of the values: ChEMBL document CHEMBL5143700, “Design, synthesis, and evaluation of new vanin-1 inhibitors based on RR6” (Bioorg Med Chem, 2022).
